The values that follow come from US8852657B2, “Chromones as therapeutic agents” (Unigen, Inc., priority 2007, dated 2014).

Data set [1] deals with adiponectin secreted into the media by differentiated 3T3-L1 cells. As to the kind of experiment: Adiponectin ELISA assay, improved protocol (differentiated 2 days, treated 48 hours). Type of data set: cell-based, mouse. The following applies: for activity in the adiponectin assay: sub-fractions and isolated compounds of P0017-OE. The method, then:
(§1) 3T3-L1, an embryonic mouse cell line (American Type Culture Collection, Manassas, Va.), is a sub-strain of the 3T3 swiss albino line that can differentiate from a pre-adipose to adipose state. These preadipocytes were cultured in Dulbecco's modified Eagle medium (DMEM) containing 10% fetal bovine serum (FBS) (Mediatech, Inc., Herndon, Va.).
(§2) To establish a differentiation protocol, the 3T3-L1 cells were plated into 96-well plates and cultured overnight to confluence. The confluent cells were induced to differentiate 2 days post-confluence. The induction was conducted with 0.5 mM isobutylmethylzanthine, 1.0 μM dexamethasone and 1.7 μM insulin (Sigma-Aldrich, St. Louis, Mo.) supplemented into culture media. On the 7th day the adipocytes were treated with the control compounds or plant extracts for 24 hours. All controls and plant extracts were solublized in DMSO and added to the culture media at 1% of the total volume. Cell media was collected to measure the levels of adiponectin and assayed by enzyme-linked immunosorbent assay (ELISA) according to the manufacturer's protocol (R&D Systems, Minneapolis, Minn.). The assay sensitivity ranged from 31.25-2000 pg/mL. The positive controls were tested in a range from 0.01 to 300 μM (FIG. 1).
Due to the poor signal to background ratio of the assay (less than 2), the previously mentioned protocol needed to be improved. Adipocytes were plated and differentiated as previously described. The cells were differentiated in the differentiation medium for 48 hours either with or without the addition of insulin. Then the cells were treated with the control compounds or plant extracts for only 48 hours post-differentiation. All other parameters were the same as previously mentioned. The indomethacin (FIG. 1) and troglitazone (data not shown) controls were tested at 10-100 μM and 3-30 μM respectively. The greatest increase in the level of adiponectin was 52-fold above the signal of baseline which was achieved by indomethacin treatment at 100 μM, while the lowest increase was 7-fold with indomethacin at 10 μM (FIG. 1B).
For orientation: In an ELISA, binding on a coated surface is turned into a signal by an enzyme label.

The subject of data set [2] is C57BL/6J mice fed high fat diet. As to the kind of experiment: Plasma insulin level (ELISA), high-fat diet induced model. Type of data set: in vivo, mouse. The following applies: day 14 of treatment after 8 weeks high-fat diet; P<0.05; GW1929 5 mg/kg, UP394 and UP396 100 mg/kg. The text has this:
A high-fat diet induced animal model was developed and used for evaluation of potential therapeutic effects of chromone extracts. The C57BL/6J is a clinically relevant animal model that can be used in studies on metabolic disorders, pathophysiology of impaired glucose tolerance and for development of novel therapeutic agents (Ahren et al. (2004) Diabetes 53 (Supplement 3):S215-S219; Laakso et al. (2004) Diabetes Care 27:2253-2259; Kahn et al. (2004) Diabetes 53:3274-3285; Scheurink et al. (1998) European J Endo. 139:461-467; Yuan et al. (2002) Diabetes 51:1851-1858; Reitman et al. (2005) Endocrinology 145:3258-3264; Vlassara et al. (2005) Diabetes 54:2314-2319; Cawthome et al. (2002) Molecular and Cellular Proteomics 1:509-516). Methodology of model induction was first explained by Surwit et al. in 1988 (Diabetes, 37:1163-1167). In brief, impaired glucose tolerance and metabolic disorder like symptoms were inflicted successfully in C57BL/6J mice when fed with high fat diets for 8 weeks. Male C57BL/6J mice were purchased from Jackson Laboratories (Bar Harbor, Me.) at age of 6 weeks. One week after acclimation period, animals were divided into groups (n=5 or 6) and provided with high fat (45% kcal) rodent pellet (Research diets, Inc., New Brunswick, N.J.) and water ad libitum for 12 weeks except at times of glucose and insulin tolerance tests at which feed was withheld for three hours. Animals were maintained in a temperature controlled room (22.2° C.) on a 12 hour light-dark cycle. Blood glucose, cholesterol, and triglyceride were monitored every week for 12 weeks as described previously. Body weight measurement was taken once a week for 12 weeks.
Once induction of the metabolic disorders was confirmed by weekly monitoring of selected parameters (glucose, triglyceride and cholesterol) i.e. on the 8th week, daily intraperitoneal treatment was initiated and maintained for 4 weeks. […]
The plasma insulin levels were measured with an ELISA kit for insulin (Crystal Chem—Chicago, Ill.). […]

In a further data set the test system is tyrosinase. To be noted: in vitro; Yagi et al. (1987); cited from earlier work.
Data set [3] concerns human intestinal bacteria. To be noted: cited from earlier work.
The test system of data set [4] is adiponectin secreted into the media by differentiated 3T3-L1 cells. The data set is described as follows: Adiponectin ELISA assay, previously published protocol (differentiated 7 days, treated 24 hours). To be noted: for fold increase in adiponectin level: 1 μM, greatest fold increase, differentiated 7 days, treated 24 hours. In kind it is cell-based, mouse. The method, then:
as §1, §2

Data set [5] deals with C57BL/6J mice fed high fat diet. As to the kind of experiment: Intraperitoneal glucose tolerance test, high-fat diet induced model (UP394/UP396). In kind it is in vivo, mouse. The following applies: day 18; times 60, 90 and 120 minutes; p<0.05; GW1929 5 mg/kg, UP396 100 mg/kg intraperitoneally. An excerpt: A high-fat diet induced animal model was developed and used for evaluation of potential therapeutic effects of chromone extracts. The C57BL/6J is a clinically relevant animal model that can be used in studies on metabolic disorders, pathophysiology of impaired glucose tolerance and for development of novel therapeutic agents (Ahren et al. (2004) Diabetes 53 (Supplement 3):S215-S219; Laakso et al. (2004) Diabetes Care 27:2253-2259; Kahn et al. (2004) Diabetes 53:3274-3285; Scheurink et al. (1998) European J Endo. 139:461-467; Yuan et al. (2002) Diabetes 51:1851-1858; Reitman et al. (2005) Endocrinology 145:3258-3264; Vlassara et al. (2005) Diabetes 54:2314-2319; Cawthome et al. (2002) Molecular and Cellular Proteomics 1:509-516). Methodology of model induction was first explained by Surwit et al. in 1988 (Diabetes, 37:1163-1167). […] Blood glucose, cholesterol, and triglyceride were monitored every week for 12 weeks as described previously. […]
An intraperitoneal glucose tolerance test was conducted using the C57BL/6J mice as described in Example 12 at a dose of 2 g/kg on day 18 of treatment with intraperitoneal administration of GW1929 (5 mg/kg), UP394 (100 mg/kg), UP396 (100 mg/kg) and vehicle. […] Blood glucose levels were measured at time 0, 30, 60, 90, and 120 minutes. […]

Entries after “also recorded” stand apart in the source; their conditions may differ.

Consider `CC(=O)Cc1cc(=O)c2c(C)cc(O)c([C@@H]3O[C@H](CO)[C@@H](O)[C@H](O)[C@H]3O)c2o1` [UP394, aloesin], for which, in data set [1] (30 μM, treated 48 hours), the “fold increase in adiponectin level” value is given as 2 fold. The “activity in the adiponectin assay” value in data set [1] was “active in increasing adiponectin production”; in data set [1] (listed as P0017-AC1), “exhibited activity in the adiponectin assay”. Also, the “plasma insulin levels compared to vehicle” value in data set [2] is reported as “decreased the insulin levels significantly; also recorded: Significant decreases in plasma insulin levels”. For the same compound, the “inhibition of tyrosinase activity” value in the data set on tyrosinase was “strong inhibitor”. Also, the “cleavage of the c-glucosyl bond” value in data set [3] is reported as “can be cleaved”.
For the compound `Cc1cc(O)c(C2OC(O)C(O)C(O)C2CO)c2oc(CC(C)O)cc(=O)c12` (stereo not drawn) [UP396, aloesinol], the “fold increase in adiponectin level” value in data set [1] (30 μM, treated 48 hours) was determined as 3.2 fold.
As to `COc1ccc2c(c1)c(CC(=O)O)c(C)n2C(=O)c1ccc(Cl)cc1` [indomethacin], the “fold increase in adiponectin level” value in data set [4] stood at 1.6 fold; in data set [1] (10 μM, differentiated 2 days, treated 2 days), 7 fold; in data set [1] (100 μM, differentiated 2 days, treated 2 days), 52 fold. Moreover, the “signal to background ratio of the assay” value in data set [4] (best ratio, indomethacin at concentrations between 0.1-300 μM, published experimental conditions) was determined as 1.6.
As for `Cc1c(C)c2c(c(C)c1O)CCC(C)(COc1ccc(CC3SC(=O)NC3=O)cc1)O2` (stereo not drawn) [troglitazone], the “fold increase in adiponectin level” value in data set [4] turned out to be 1.7 fold; in data set [1] (3 μM, treated 48 hours), 24 fold; in data set [1] (30 μM, treated 48 hours), 49 fold.
aloesinol [UP396]: the results for the “activity in the adiponectin assay” value in data set [1] and in data set [1] (listed as P0017-AC2) were “active in increasing adiponectin production” and “exhibited activity in the adiponectin assay”, respectively. In addition, the “glucose utilization in intraperitoneal glucose tolerance test compared to vehicle” value in data set [5] is recorded as “Significant glucose utilization”. Also, in data set [2], the “plasma insulin levels compared to vehicle” value is “decreased the insulin levels significantly; also recorded: Significant decreases in plasma insulin levels”.
